Test results reported in patent publication US20250161286A1 (AEVIS BIO, INC., priority 2022, published 2025).

What was measured:
SALL4 = SALL4 degradation by immunoblotting in Tera-1 cells; type: cell-based, human; conditions: 0.000128-10 μM, 4 hours
Source text: It has been reported that a cereblon (CRBN)-binding therapeutic such as a thalidomide-based compound can cause severe congenital abnormalities such as forelimb shortening or brachydactyly, which are closely associated with the decomposition of SALL4.
To this end, the Tera-1 cell line (HTB-105), which is a human embryonic carcinoma cell line, was purchased from the American Type Culture Collection (ATCC, Manassas, VA, USA) and used, and then cultured using a DMEM medium (Corning, MD, USA) supplemented with 10% fetal bovine serum (Corning, MD, USA), 100 U/ml of penicillin (Corning, MD, USA), and 100 μg/ml streptomycin (Corning, MD, USA) at 37° C. in a 5% CO2 incubator.
The cells were disrupted by adding a RIPA buffer containing a protease inhibitor cocktail (Thermo Fisher Scientific), and centrifuged at 14,000 rpm for 15 minutes at 4° C. to obtain a cell extract. Equal amounts of the cell extract were loaded, and proteins were separated by SDS-PAGE and then transferred to a PVDF membrane. The protein-transferred membrane was blocked using skim milk, incubated with a primary antibody for 3 hours at room temperature, and then incubated with an HRP-conjugated secondary antibody for 1 hour at room temperature. The resulting product was washed with TBS-T three times between steps. […]

Aiolos and Ikaros = Aiolos and Ikaros degradation by immunoblotting in MM.1S cells; type: cell-based, human
Protocol: To this end, the MM.1S cell line was cultured in an RPMI medium (Corning, MD, USA) supplemented with 10% fetal bovine serum (Corning, MD, USA), 100 U/ml of penicillin (Corning, MD, USA), and 100 μg/ml of streptomycin (Corning, MD, USA) at 37° C. in a 5% CO2 incubator. […] The cells were disrupted by adding a RIPA buffer containing a protease inhibitor cocktail (Thermo Fisher Scientific) and centrifuged at 14,000 rpm for 15 minutes at 4° C. to obtain a cell extract. Equal amounts of the cell extract were loaded, and proteins were separated through SDS-PAGE and then transferred to a PVDF membrane. The protein-transferred membrane was blocked using skim milk, incubated with a primary antibody for 3 hours at room temperature, and then incubated with an HRP-conjugated secondary antibody for 1 hour at room temperature. The resulting product was washed with TBS-T three times between steps. Detection was performed using a chemoluminescence reagent (Thermo Fisher Scientific), and confirmed using Chemidoc (iBright CL1500, Invitrogen, CA, USA). Aiolos (#15103), Ikaros (#9034) and GAPDH (#2118S) antibodies used as primary antibodies and a secondary antibody were purchased from Cell Signaling Technology (Danvers, MA, USA).
Additionally, the expression of Aiolos and Ikaros, mediated by 3-MP, was confirmed over time. […]

BV-2 cells = experiment: Nitrite content in culture solution of LPS-stimulated BV-2 cells (Griess Reagent System); type: cell-based, mouse; conditions: BV-2 cells, 3.33, 10 or 30 μM, 1 μg/mL LPS, 24 hours
Protocol: To further confirm the oxidative stress suppression effect, the content of nitrite released due to an inflammatory response and the expression levels of iNOS, which is an enzyme that produces nitric oxide, and COX-2, which is cyclooxygenase-2, were determined in mouse microglial cells (BV-2, ATCC, Manassas, VA, USA).
To determine the content of nitrite and the protein expression levels of iNOS and COX-2, BV-2 was seeded in a 12-well plate (Corning, MD, USA) at 1.5×10^5 cells/well, and cultured using a DMEM medium (Corning, MD, USA) containing 10% fetal bovine serum (Corning, MD, USA) and 100 U/ml of penicillin/streptomycin (Corning, MD, USA) at 37° C. in a 5% CO2 incubator for one day for stabilization. […] 1 μg/mL of LPS (Sigma, USA) was added to all experimental groups excluding the non-inflammation-induced group and allowed to react at 37° C. in a 5% CO2 incubator for 24 hours.
The cell culture solution was collected to measure the content of nitrite, and centrifuged at 3,000 rpm for 5 minutes to obtain a supernatant. The concentration of nitrite in the cell culture solution was measured using a microplate reader (NEO2MALPHAB Synergy Neo-2, BioTek, CA, US) according to the manual of the Griess Reagent System (#G2930, Promega, WI, USA).

[1] = Cytotoxicity evaluation, CCK analysis kit; type: cell-based; conditions: human, MM.1S (CRL-2974) multiple myeloma cells; MM.1S cells, treated for 3 days
Protocol: The MM.1S (CRL-2974) cell line, which is a human multiple myeloma cell line, was purchased from the American Type Culture Collection (ATCC, Manassas, VA, USA) and used, and incubated using RPMI1640 medium (Corning, MD, USA) supplemented with 10% fatal bovine serum (Corning, MD, USA), 100 U/ml of penicillin (Corning, MD, USA), and 100 μg/ml of streptomycin (Corning, MD, USA) at 37° C. in a 5% CO2 incubator for 24 hours.

With `Nc1cccc2c1C(=S)N(C1CCC(=O)NC1=O)C2=O` (centres unmarked) [3-MP, 3-thiopomalidomide] the “decomposition of SALL4” value (SALL4) was “less decomposition of SALL4 than pomalidomide”, the “expression of Aiolos and Ikaros over time” value (Aiolos and Ikaros; 10 μM, 1, 4, 8, 12 or 24 hours) was “does not reduce the expression of Aiolos and Ikaros” and the “expression of Aiolos and Ikaros” value (Aiolos and Ikaros; 0.000128-10 μM, 4 hours) was “does not reduce the expression of Aiolos and Ikaros”. The “amount of nitrite released by LPS” value (BV-2 cells) was “effectively reduced the amount of the residual nitrite released by LPS” and the IC50 at 3 days [1] was ≥ 50 µM.
